Test results reported in patent US20240287082A1, “NEW BENZODIAZEPINE DERIVATIVES AS GABA A GAMMA1 PAM” (Hoffmann-La Roche Inc., priority 2021, published 2024).

Key:
[1] = target: human GABAA α1β2γ1 receptor (Homo sapiens (Human), UniProt P14867+Q8N1C3); assay: Radioligand binding assay, competition for [3H]RO7239181, γ1-containing GABAA subtype α1β2γ1; conditions: membranes of HEK293F cells, [3H]RO7239181 20-30 nM, mean of two determinations
Protocol: The affinity of compounds at GABAA γ1 subunit-containing receptors was measured by competition for [^3H]RO7239181 (67.3 Ci/mmol; Roche) binding to membranes from HEK293F cells (ThermoFisher R^79007) expressing human (transiently transfected) receptors of composition α5β2γ1, α2β2γ1, α1β2γ1.
Harvested pellets from HEK293F cells expressing the different GABAA receptor subtypes were resuspended in Mannitol Buffer pH 7.2-7.4 (Mannitol 0.29M, Triethylamine 10 mM, Acetic acid 10 mM, EDTA 1 mM plus protease inhibitors (20 tablets Complete, Roche Diagnostics Cat. No. 05 056 489 001 per liter)), washed two times and then resuspended at 1:10 to 1:15 dilution in the same buffer. Cell disruption was performed by stirring the suspension in a Parr vessel #4637 at 435 psi for 15 minutes, and then the suspensions were centrifuged at 1000×g for 15 minutes at 4° C. (Beckman Avanti J-HC: rotor JS-4.2). The supernatant (S1) was transferred in a 21 Schott flask and the pellet (P1) was resuspended with Mannitol Buffer up to 175 ml. The resuspended pellet was transferred into a 250 ml Corning centrifugal beaker and centrifuged at 1500×g for 10 minutes at 4° C. (Beckman Avanti J-HC: rotor JS-4.2). The supernatant (S1) was then transferred in the 21 Schott flask and the pellet was discarded. The supernatants (S1) were centrifuged in 500 ml Beckman polypropylene centrifugal beaker at 15 000×g for 30 minutes at 4° C. (Beckman Avanti J-20 XP: rotor JLA-10.500). The pellet (P2) was resuspended with Mannitol Buffer 1:1 and frozen at −80° C. The supernatant (S2) was centrifuged in 100 ml Beckman polypropylene centrifugal tubes at 48000×g for 50 minutes at 4° C. (Beckman Avanti J-20 XP: rotor JA-18). The supernatant (S3) was discarded and the pellet (P3) was resuspended with 1:1 Mannitol Buffer. The P2 and P3 protein concentration was determined with the BIORAD Standard assay method with bovine serum albumin as standard and measured on the NANO-Drop 1000. The membrane suspension was aliquots (500 μl per tube) and stored at −80° C. until required.
Membrane homogenates were resuspended and polytronised (Polytron PT1200E Kinematica AG) in Potassium Phosphate 10 mM, KCl 100 mM binding buffer at pH 7.4 to a final assay concentration determined with a previous experiment.
Assays were incubated to equilibrium for 1 hour at 4° C. and then, membranes were filtered onto unifilter (96-well white microplate with bonded GF/C filters preincubated 20-50 minutes in 0.3% Polyethylenimine) with a Filtermate 196 harvester (Packard BioScience) and washed 4 times with cold Potassium Phosphate 10 mM pH 7.4, KCl 100 mM binding buffer. After anhydrousing, filter-retained radioactivity was detected by liquid scintillation counting. Ki values were calculated using Excel-Fit (Microsoft) and are the means of two determinations.

h-GABA-A α2β2γ1 = h-GABA-A α2β2γ1 (Homo sapiens (Human), UniProt P47869+Q8N1C3); assay: Two-electrode voltage clamp electrophysiology in Xenopus oocytes expressing GABAA receptors, modulation of GABA EC20 current; type: cell-based; conditions: for Efficacy (GABA) %: % modulation of GABA EC20 = 100*(Fold increase−1), compound at 30-fold Ki α2β2γ1; for Fold increase h-GABA-A α2β2γ1 oocyte @ 30-fold Ki: Xenopus oocytes, GABA EC20, test compound at approx. 30-fold its Ki α2β2γ1
Protocol: Xenopus laevis oocytes at maturation stages V-VI were used for the expression of cloned mRNA encoding GABAA receptor subunits. Oocytes ready for RNA micro-injection were bought from Ecocyte, Castrop-Rauxel, Germany and stored in modified Barth's medium (composition in mM: NaCl 88, KCl 1, NaHCO3 2.4, HEPES 10, MgSO4 0.82, CaNO3 0.33, CaCl2 0.33, pH=7.5) at 20° C. until the experiment.
Oocytes were plated in 96-well plates for microinjection using the Roboinject automated instrument (MultiChannelSystems, Reutlingen, Germany). Approximately 50 nL of an aqueous solution containing the RNA transcripts for the subunits of the desired GABAA receptor subtype was injected into each oocyte. […] Oocytes were kept in modified Barth's medium (composition in mM: NaCl 88, KCl 1, NaHCO3 […], HEPES 10, MgSO4 0.82, CaNO3 0.33, CaCl2 0.33, pH=7.5) at 20° C. until the experiment.
Electrophysiological experiments were performed using the Roboocyte instrument (MultiChannelSystems, Reutlingen, Germany) on days 3 to 5 after the micro-injection of mRNA. During the experiment the oocytes were constantly superfused by a solution containing (in mM) NaCl 90, KCl 1, HEPES 5, MgCl2 1, CaCl2 1 (pH 7.4). Oocytes were impaled by two glass microelectrodes (resistance: 0.5-0.8 MΩ) which were filled with a solution containing KCl 1M+K-acetate 1.5 M and voltage-clamped to −80 mV. The recordings were performed at room temperature using the Roboocyte two-electrode voltage clamp system (Multichannelsystem). After an initial equilibration period of 1.5 min GABA was added for 1.5 min at a concentration evoking approximately 20% of a maximal current response (EC20). After another rest interval of 2.5 min GABA was again added evoking a response of similar amplitude and shape. […] Current traces were recorded at a digitization rate of 10 Hz during and shortly before and after the GABA application.
Each compound and concentration was tested on at least 3 oocytes. Different oocytes were used for different compound concentrations.
For the analysis, the digitized current traces of the first and second GABA response were superimposed and, if necessary, rescaled to equal maximal amplitudes. The ratio between the two responses during the time interval of test compound application was calculated point by point. The extremum of the resulting “ratio trace” was taken as the efficacy (“Fold increase”) of the compound expressed as “% modulation of GABA EC20” (100*(Fold increase−1)).

| Compound | Ki [1] | Efficacy (GABA) % (h-GABA-A α2β2γ1) | Fold increase h-GABA-A α2β2γ1 oocyte @ 30-fold Ki (h-GABA-A α2β2γ1) |
| --- | --- | --- | --- |
| C[C@@H]1N=C(c2c(F)cccc2F)c2c(ccc(Br)c2Cl)-n2ccc(=O)nc21 [Example 13, (5S)-9-bromo-8-chloro-7-(2,6-difluorophenyl)-5-methyl-5H-pyrimido[1,2-a][1,4]benzodiazepin-3-one] | 17.6 nM | 70% | 1.7 |
| CCc1cn2c(nc1=O)[C@H](C)N=C(c1c(F)cccc1F)c1c-2ccc(C(F)(F)F)c1Cl [Example 11, (5S)-8-chloro-7-(2,6-difluorophenyl)-2-ethyl-5-methyl-9-(trifluoromethyl)-5H-pyrimido[1,2-a][1,4]benzodiazepin-3-one] | 167 nM | 70% | 1.7 |
| CCO/C=C/c1cn2c(nc1=O)[C@H](C)N=C(c1c(F)cccc1F)c1c-2ccc(Cl)c1Cl [Example 19, (5S)-8,9-dichloro-7-(2,6-difluorophenyl)-2-[(E)-2-ethoxyvinyl]-5-methyl-5H-pyrimido[1,2-a][1,4]benzodiazepin-3-one] |  | 104% | 2.04 |
| Cc1cn2c(nc1=O)[C@H](C)N=C(c1c(F)cccc1F)c1c-2ccc(C(F)(F)F)c1Cl [Example 9, (5S)-8-chloro-7-(2,6-difluorophenyl)-2,5-dimethyl-9-(trifluoromethyl)-5H-pyrimido[1,2-a][1,4]benzodiazepin-3-one] | 98.1 nM | 99% | 1.99 |
| C[C@@H]1N=C(c2c(F)cccc2F)c2c(ccc(C(F)(F)F)c2Cl)-n2cc(C(=O)NC3CC3)c(=O)nc21 [Example 28, (5S)-8-chloro-N-cyclopropyl-7-(2,6-difluorophenyl)-5-methyl-3-oxo-9-(trifluoromethyl)-5H-pyrimido[1,2-a][1,4]benzodiazepine-2-carboxamide] |  | 35% | 1.35 |
| CCO/C=C/c1cn2c(nc1=O)CN=C(c1c(F)cccc1F)c1c-2ccc(Cl)c1Cl [Example 22, 8,9-dichloro-7-(2,6-difluorophenyl)-2-[(E)-2-ethoxyvinyl]-5H-pyrimido[1,2-a][1,4]benzodiazepin-3-one] |  | 113% | 2.13 |
| CCOCCc1cn2c(nc1=O)CN=C(c1c(F)cccc1F)c1c-2ccc(Cl)c1Cl [Example 24, 8,9-dichloro-7-(2,6-difluorophenyl)-2-(2-ethoxyethyl)-5H-pyrimido[1,2-a][1,4]benzodiazepin-3-one] |  | 120% | 2.20 |
| CCO/C=C/c1cn2c(nc1=O)CN=C(c1c(F)cccc1F)c1c-2ccc(C(F)(F)F)c1Cl [Example 25, 8-chloro-7-(2,6-difluorophenyl)-2-[(E)-2-ethoxyvinyl]-9-(trifluoromethyl)-5H-pyrimido[1,2-a][1,4]benzodiazepin-3-one] |  | 81% | 1.81 |
| O=c1ccn2c(n1)CN=C(c1ccccc1F)c1c-2ccc(Cl)c1Cl [Example 1, 8,9-dichloro-7-(2-fluorophenyl)-5H-pyrimido[1,2-a][1,4]benzodiazepin-3-one] | 63.4 nM | 92% | 1.92 |
| O=c1ccn2c(n1)CN=C(c1c(F)cccc1F)c1c-2ccc(Cl)c1Cl [Example 2, 8,9-dichloro-7-(2,6-difluorophenyl)-5H-pyrimido[1,2-a][1,4]benzodiazepin-3-one] | 8.6 nM | 88% | 1.88 |
| CNC(=O)c1cn2c(nc1=O)[C@H](C)N=C(c1c(F)cccc1F)c1c-2ccc(C(F)(F)F)c1Cl [Example 27, (5S)-8-chloro-7-(2,6-difluorophenyl)-N,5-dimethyl-3-oxo-9-(trifluoromethyl)-5H-pyrimido[1,2-a][1,4]benzodiazepine-2-carboxamide] | 67.8 nM | 113% | 2.13 |
| CCOCCc1cn2c(nc1=O)[C@H](C)N=C(c1c(F)cccc1F)c1c-2ccc(Cl)c1Cl [Example 21, (5S)-8,9-dichloro-7-(2,6-difluorophenyl)-2-(2-ethoxyethyl)-5-methyl-5H-pyrimido[1,2-a][1,4]benzodiazepin-3-one] |  | 113% | 2.13 |
| C[C@@H]1N=C(c2c(F)cccc2F)c2c(ccc(Cl)c2Cl)-n2ccc(=O)nc21 [Example 4, (5S)-8,9-dichloro-7-(2,6-difluorophenyl)-5-methyl-5H-pyrimido[1,2-a][1,4]benzodiazepin-3-one] | 25.6 nM | 105% | 2.05 |
| CCO/C=C/c1cn2c(nc1=O)[C@H](C)N=C(c1c(F)cccc1F)c1c-2ccc(C(F)(F)F)c1Cl [Example 18, (5S)-8-chloro-7-(2,6-difluorophenyl)-2-[(E)-2-ethoxyvinyl]-5-methyl-9-(trifluoromethyl)-5H-pyrimido[1,2-a][1,4]benzodiazepin-3-one] |  | 89% | 1.89 |
| CCOCCc1cn2c(nc1=O)[C@H](C)N=C(c1c(F)cccc1F)c1c-2ccc(C(F)(F)F)c1Cl [Example 20, (5S)-8-chloro-7-(2,6-difluorophenyl)-2-(2-ethoxyethyl)-5-methyl-9-(trifluoromethyl)-5H-pyrimido[1,2-a][1,4]benzodiazepin-3-one] |  | 113% | 2.13 |
| CCOCCc1cn2c(nc1=O)CN=C(c1c(F)cccc1F)c1c-2ccc(C(F)(F)F)c1Cl [Example 26, 8-chloro-7-(2,6-difluorophenyl)-2-(2-ethoxyethyl)-9-(trifluoromethyl)-5H-pyrimido[1,2-a][1,4]benzodiazepin-3-one] |  | 113% | 2.13 |
